Source: patent publication US20090317376A1, “Compositions And Methods For Lipo Modeling” (Georgetown University MEDICAL SCHOOL, priority 2005, published 2009)

Test system: 3T3-L1 preadipocytes
Experiment: Preadipocyte proliferation (mitogenic assay)
Format: cell-based, murine
Source text: To mimic stress-released NPY in vitro, conditioned media from, or coculture with, neuroblastoma SKNBE cells (a model of sympathetic neurons which release 0.1 pM NPY) is used to treat endothelial cells and 3T3-L1 preadipocytes. Both cell lines express all NPYRs but lack NPY (confirmed by RT-PCR and IHC, FIG. […] 6). […] When 3T3-L1 preadipocytes are cocultured with HMVEC, there is no significant mitogenic response between treated and untreated cells.
Co-culture: For mitogenic assay and expression studies, co-culture is performed in a Costar Transwell system. Cells are plated on the 6-well plates and the inserts with 0.4 μm Polyester membranes. After they reach 30% confluence, the inserts are placed into plates with other cells. Co-culture of neuroblastomas/SCG neurons with aECs are carried out in EC media and with preadipocytes—in preadipocyte growth media. […] After 48 h, the cells are counted with a coulter counter. […]
Mitogenic assays: 3T3-L1 pre-adipocytes are allowed to grow to 30% confluency before serum-starving the cells. […] Proliferation is determined by cell counting using a coulter counter (Beckman Coulter, Miami, Fla.). […] After 24 h, cells are harvested in a 96-well harvester (Tomtec) and counted in a Betaplate Liquid Scintillation Counter (Wallac).
1. […] After 24 h, cells were harvested in a 96-well harvester (Tomtec) and counted in a Betaplate Liquid Scintillation Counter (Wallac). […]

Compound: neuropeptide Y [NPY]
- preadipocyte proliferation (NPY treatment of 3T3-L1 preadipocytes): stimulated

Compound: N=C(N)NCCC[C@H](NC(=O)CC1(CC(=O)N2CCN(C3c4ccccc4NC(=O)c4ccccc43)CC2)CCCC1)C(=O)NCCn1c(=O)n(-c2ccccc2)n(-c2ccccc2)c1=O (some centres unmarked) [BIIE0246]
- block of NPY- and neuroblastoma-conditioned media-stimulated preadipocyte proliferation (BIIE0246 1 μM): blocked
